In brackets after ≈: the same amount, converted by molar mass.
Columns and labels:
[1] = test system: Complete Freund's Adjuvant (CFA)-induced inflammation; assay: Complete Freund's adjuvant (CFA)-induced inflammation model, volume displacement by plethysmometer; type: in vivo, Sprague-Dawley male rats
Protocol: (§1) Preclinical studies were performed in rats with a chronic inflammation model using complete Freund's adjuvant (CFA) given intra-articularly (AIA), as well as an acute model induced by carrageenan (CAR) given in the subplantar region.
(§2) In these models, the inflammation induced by the complete Freund's adjuvant and carrageenan is determined by the volume displacement measured with a plethysmometer.

[2] = test system: carrageenan (CAR)-induced inflammation; assay: Carrageenan (CAR)-induced subplantar edema model, volume displacement by plethysmometer; type: in vivo, rats; conditions: for Time from which an anti-inflammatory effect is shown, carrageenan model: oral 100 mg/kg; for Effect in the time course, carrageenan model: oral 100 and 320 mg/kg
Protocol: The carrageenan (CAR)-induced subplantar edema model was used in the evaluation of the acute effect.
as §1, §2

[3] = test system: CAR-induced thermal hyperalgesia; assay: Thermal hyperalgesia induced by carrageenan; type: in vivo, rats; conditions: oral 100 mg/kg
[4] = Thermodynamic solubility study in water with 1% LSS; type: physicochemical
Protocol: It was performed by adding 2 g of the solid phase to LSS (sodium lauryl sulfate) medium, with stirring at 37.5° C., and taking aliquots at 3, 5, 10 and 30 minutes. Aliquots were filtered and measurements were made with UV-Vis spectroscopy at 420 nm.
We measured the solubility of the co-amorphous phases at a lower concentration of 0.05 g in 3.5 ml, for determining the effect of concentration on the aggregation phenomenon.

[5] = Merck Index 15th ed.; cited from earlier work
[6] = oral, 100 and 320 mg/kg, 1 h before

**Q.** For `N=C(N)NCCC[C@H](N)C(=O)O` [L-arginine], which “Effect in relation to the vehicle in the time course, CFA model” value ([1]; oral 100 and 320 mg/kg, between 2 and 4 hours) is on record?
**A.** Its value is “showed an inflammatory effect in relation to the vehicle”.

**Q.** What about the “Time from which an anti-inflammatory effect is shown, carrageenan model” value [2] of the same molecule?
**A.** The value was “only in the last measurement”.

**Q.** What about the “Effect in the time course, carrageenan model” value ([2]; first two hours) of the same molecule?
**A.** Its value is “inclined to show a proinflammatory effect”.

**Q.** And the “Antihyperalgesic effect, carrageenan-induced thermal hyperalgesia” value [3]?
**A.** Its value is “the three treatments produce an antihyperalgesic effect”.

**Q.** Which results are given for `COc1cc(/C=C/C(=O)CC(=O)/C=C/c2ccc(O)c(OC)c2)ccc1O` [curcumin, (1E,6E)-1,7-bis(4-hydroxy-3-methoxyphenyl)-1,6-heptadiene-3,5-dione]?
**A.** Effect with respect to the vehicle in the time course, CFA model ([1]; oral 100 mg/kg, at 3 and 4 hours): shows an inflammatory effect with respect to the vehicle; Effect with respect to the vehicle in the time course, CFA model ([1]; oral 320 mg/kg, between 2 and 6 hours): shows an inflammatory effect with respect to the vehicle; Reversal of the inflammatory effect induced by complete Freund's adjuvant (AUC) [1, 6]: unable to reverse the inflammatory effect; Time from which an anti-inflammatory effect is shown, carrageenan model [2]: only in the last measurement; Effect with respect to the vehicle in the time course, carrageenan model ([2]; oral 320 mg/kg, at 1 and 2 hours): The same phenomenon is observed; Effect in the time course, carrageenan model ([2]; at 6 hours): seem to reverse the inflammatory effect induced by carrageenan; Reversal of the inflammatory effect induced by carrageenan (AUC) [2, 6]: unable to reverse the inflammatory effect; Antihyperalgesic effect, carrageenan-induced thermal hyperalgesia [3]: the three treatments produce an antihyperalgesic effect; solubility at 30 min ([4]; water with 1% sodium lauryl sulfate (LSS), aqueous with cosolvent or surfactant or cyclodextrin, thermodynamic from solid, high concentration sample, 37.5° C., water with 1% LSS, 30 min): 110 µg/mL (≈ 299 µM); Solubility of curcumin alone in water ([4]; water, could not be determined): almost insoluble in water; Solubility in solvents [5]: soluble in ethanol and in concentrated acetic acid

**Q.** For `O=C(O)Cc1ccccc1Nc1c(Cl)cccc1Cl` [diclofenac], which “Reversal of inflammation induced by complete Freund's adjuvant” value ([1]; oral, fixed dose 100 mg/kg) is on record?
**A.** The value was “exhibited an anti-inflammatory effect”.

**Q.** And the “Reversal of inflammation induced by carrageenan” value ([2]; oral, fixed dose 100 mg/kg)?
**A.** Its value is “exhibited an anti-inflammatory effect”.

From US12714684B2 (ALPARIS, S.A. DE C.V., priority 2019, dated 2026)
